In one assay the target is hNAMPT protein (Homo sapiens (Human), UniProt P43490). As to the kind of experiment: NAMPT enzyme assay (TR-FRET/HTRF, BodiPY ligand, anti 6His-Tb). The class given is binding. Conditions: for IC50: NAMPT IC50 range class, read-out: IC50; for inhibition at 1 µM: compound concentration 1 μM, read-out: Percent Inhibition. The method in brief: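 Compound or DMSO was incubated for 1 h at room temperature, protected from light, with BodiPY ligand and hNAMPT labelled by terbium anti-6His antibody. The 520 nm to 486 nm emission ratio after 320 nm excitation gave inhibition versus vehicle, from which concentration-response curves yielded IC50.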
Chain of hNAMPT protein (P43490 whole entry): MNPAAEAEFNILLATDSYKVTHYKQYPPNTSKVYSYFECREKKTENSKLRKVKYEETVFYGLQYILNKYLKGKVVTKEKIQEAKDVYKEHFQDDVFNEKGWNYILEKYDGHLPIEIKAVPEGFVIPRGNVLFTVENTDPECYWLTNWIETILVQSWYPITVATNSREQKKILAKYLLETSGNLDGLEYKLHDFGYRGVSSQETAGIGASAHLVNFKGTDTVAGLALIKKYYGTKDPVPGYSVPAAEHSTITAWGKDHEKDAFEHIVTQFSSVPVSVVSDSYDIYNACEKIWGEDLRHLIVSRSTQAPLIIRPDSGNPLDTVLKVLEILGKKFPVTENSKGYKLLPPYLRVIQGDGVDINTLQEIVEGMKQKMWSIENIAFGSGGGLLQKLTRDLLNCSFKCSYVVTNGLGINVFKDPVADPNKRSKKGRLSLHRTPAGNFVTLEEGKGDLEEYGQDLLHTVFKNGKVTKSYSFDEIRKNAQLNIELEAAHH

The test system of the next assay is PC3 cells. In words: PC3 growth inhibition (Cell-titer glo, 72 hours). The class given is cell-based. Conditions: Homo sapiens, PC-3, PC3 cells, 72 hours, Cell-titer glo, read-out: Percent Inhibition (PC3 growth inhibition); for inhibition at 1.667 µM: compound concentration 1.667 μM; for inhibition at 1 µM: compound concentration 1 μM. The method in brief:
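Compounds in AIM serum-free medium were applied for 72 h at 37 °C, 5% CO2 to PC3 cells plated overnight from RPMI1640 culture. Luminescence after 10 min CellTiter-Glo, normalised to DMSO, gave % viability at 1 μM or 1.667 μM, or GI50/LD50.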

Turning to `O=C(NCCCc1ncc[nH]1)c1ccc2nc(C3=CCOCC3)c(-c3cccs3)nc2c1` [Compound I-300, 2-(3,6-dihydro-2H-pyran-4-yl)-N-[3-(1H-imidazol-2-yl)propyl]-3-(2-thienyl)quinoxaline-6-carboxamide], on hNAMPT protein, the IC50 was below 100 nM and the inhibition at 1 µM was above 99%. Besides, the inhibition at 1.667 µM in the assay on PC3 cells is 32%.
Taken in the same sequence, the figures for `O=C(NCCCc1c[nH]cn1)c1ccc2nc(N3CCCCC3)c(-c3ccc(F)cc3)nc2c1` [Compound I-301, 3-(4-Fluorophenyl)-N-[3-(1H-imidazol-4-yl)propyl]-2-(piperidin-1-yl)quinoxaline-6-carboxamide] were below 100 nM, 99% and 2%.
Take `O=C(NCCc1cnc2ccccn12)c1ccc2nc(-c3ccc(F)cc3)c(-c3ccc(F)cc3)nc2c1` [Compound I-302, 2,3-bis(4-fluorophenyl)-N-[2-(imidazo[1,2-a]pyridin-3-yl)ethyl]quinoxaline-6-carboxamide]: at hNAMPT protein, the IC50 was 500 to 1000 nM and the inhibition at 1 µM was found to be 63%. The inhibition at 1 µM in the assay on PC3 cells was 87%.
In the same order, the values of `Cn1ccc2c1CN(C(=O)c1ccc3nc(-c4ccc(F)cc4)c(-c4ccc(F)cc4)nc3c1)CC2` [Compound I-303, [2,3-bis(4-fluorophenyl)quinoxalin-6-yl](1-methyl-1,4,5,7-tetrahydro-6H-pyrrolo[2,3-c]pyridin-6-yl)methanone] are 2000 to 10000 nM, 15% and 95%.
Taken in the same sequence, the figures for `COc1nn(C)c2c1CN(C(=O)c1ccc3nc(-c4ccc(F)cc4)c(-c4ccc(F)cc4)nc3c1)CC2` [Compound I-304, [2,3-bis(4-fluorophenyl)quinoxalin-6-yl](3-methoxy-1-methyl-1,4,6,7-tetrahydro-5H-pyrazolo[4,3-c]pyridin-5-yl)methanone] were 2000 to 10000 nM, 17% and 92%.
Take `O=C(NCCCc1ncc[nH]1)c1ccc2nc(-n3ncc4ccccc43)c(-c3ccc(F)cc3)nc2c1` [Compound I-305, 3-(4-fluorophenyl)-N-[3-(1H-imidazol-2-yl)propyl]-2-(1H-indazol-1-yl)quinoxaline-6-carboxamide]: at hNAMPT protein, the half-inhibitory concentration (IC50) is below 100 nM and the inhibition at 1 µM is 93%. Also, the inhibition at 1.667 µM in the assay on PC3 cells is 3%.
In the same order, the values of `Cc1c(F)cc(-c2nc3cc(C(=O)NCCCc4ncc[nH]4)ccc3nc2-c2ccc(F)cc2)cc1F` [Compound I-306, 3-(3,5-difluoro-4-methylphenyl)-2-(4-fluorophenyl)-N-[3-(1H-imidazol-2-yl)propyl]quinoxaline-6-carboxamide] are 500 to 1000 nM, 60% and 3%.
Taken in the same sequence, the figures for `CCc1nc2ccc(C(=O)NCCCc3ncc[nH]3)cc2nc1-c1ccc(F)cc1` [Compound I-307, 2-ethyl-3-(4-fluorophenyl)-N-[3-(1H-imidazol-2-yl)propyl]quinoxaline-6-carboxamide] were 100 to 500 nM, 73% and 4%.
Turning to `NS(=O)(=O)c1cccc(-c2nc3cc(C(=O)NCCCc4ncc[nH]4)ccc3nc2-c2ccc(F)cc2)c1` [Compound I-308, 2-(4-fluorophenyl)-N-[3-(1H-imidazol-2-yl)propyl]-3-(3-sulfamoylphenyl)quinoxaline-6-carboxamide], on hNAMPT protein, the IC50 fell in the range of 100 to 500 nM and the inhibition at 1 µM is 89%. Also, in the assay with PC3 cells, the inhibition at 1.667 µM is 4%.
In the same order, the values of `Cc1cc(-c2nc3cc(C(=O)NCCCc4ncc[nH]4)ccc3nc2-c2ccc(F)cc2)cnc1Cl` [Compound I-309, 3-(6-chloro-5-methylpyridin-3-yl)-2-(4-fluorophenyl)-N-[3-(1H-imidazol-2-yl)propyl]quinoxaline-6-carboxamide] are 100 to 500 nM, 86% and 3%.
In the same order, the values of `CC(C)Oc1nc2ccc(C(=O)NCCCc3nnc[nH]3)cc2nc1-c1ccc(F)cc1` [Compound I-310, 3-(4-fluorophenyl)-2-isopropoxy-N-[3-(4H-1,2,4-triazol-3-yl)propyl]quinoxaline-6-carboxamide] are 500 to 1000 nM, 62% and 4%.
As for `Cc1ccc(-c2nc3cc(C(=O)NCCCc4ncc[nH]4)ccc3nc2-c2ccc(F)cc2)cc1F` [Compound I-311, 3-(3-fluoro-4-methylphenyl)-2-(4-fluorophenyl)-N-[3-(1H-imidazol-2-yl)propyl]quinoxaline-6-carboxamide], at hNAMPT protein, the half-inhibitory concentration (IC50) is 100 to 500 nM and the inhibition at 1 µM came out at 76%. Moreover, the inhibition at 1.667 µM with PC3 cells was determined as 2%.
In the same order, the values of `O=C(NCCCc1ncc[nH]1)c1ccc2nc(-c3ccc(F)cc3)c(-c3cccc(Cl)c3F)nc2c1` [Compound I-312, 3-(3-chloro-2-fluorophenyl)-2-(4-fluorophenyl)-N-[3-(1H-imidazol-2-yl)propyl]quinoxaline-6-carboxamide] are below 100 nM, 94% and 2%.
In the same order, the values of `O=C(NCCCc1ncc[nH]1)c1ccc2nc(-c3ccc(F)cc3)c(-c3ccccc3F)nc2c1` [Compound I-313, 3-(2-fluorophenyl)-2-(4-fluorophenyl)-N-[3-(1H-imidazol-2-yl)propyl]quinoxaline-6-carboxamide] are 100 to 500 nM, 86% and 2%.
Taken in the same sequence, the figures for `O=C(NCCCc1ncc[nH]1)c1ccc2nc(OCC3CCCCC3)c(-c3ccc(F)cc3)nc2c1` [Compound I-314, 2-(cyclohexylmethoxy)-3-(4-fluorophenyl)-N-[3-(1H-imidazol-2-yl)propyl]quinoxaline-6-carboxamide] were below 100 nM, 91% and 3%.
On to `O=C(NCCCc1ncc[nH]1)c1ccc2nc(-c3ccc(Cl)cc3)c(-c3ccc(Cl)cc3)nc2c1` [Compound I-315, 2,3-bis(4-chlorophenyl)-N-[3-(1H-imidazol-2-yl)propyl]quinoxaline-6-carboxamide], for which, at hNAMPT protein, the half-maximal inhibitory concentration (IC50) is 100 to 500 nM and the inhibition at 1 µM turned out to be 88%. In addition, in the assay on PC3 cells, the inhibition at 1.667 µM was determined as 1%.
In the same order, the values of `O=C(NCCCc1ncc[nH]1)c1ccc2nc(OCC3CC(F)(F)C3)c(-c3ccc(F)cc3)nc2c1` [Compound I-316, 2-[(3,3-difluorocyclobutyl)methoxy]-3-(4-fluorophenyl)-N-[3-(1H-imidazol-2-yl)propyl]quinoxaline-6-carboxamide] are below 100 nM, 98% and 2%.
As for `COc1cc(-c2nc3cc(C(=O)NCc4ccc5nccn5c4)ccc3nc2OC(C)C)c(F)cn1` [Compound I-317, 3-(5-fluoro-2-methoxypyridin-4-yl)-N-(imidazo[1,2-a]pyridin-6-ylmethyl)-2-isopropoxyquinoxaline-6-carboxamide], at hNAMPT protein, the concentration for half-maximal inhibition (IC50) is 100 to 500 nM and the inhibition at 1 µM is 66%. For the same compound, the inhibition at 1.667 µM in the assay with PC3 cells turned out to be 1%.

The values above are taken from patent US10144742B2 (Millennium Pharmaceuticals, Inc., priority 2014, dated 2018).
